This note sets out measurements from patent publication US20230027854A1, “ISOXAZOLE DERIVATIVES TARGETING TACC3 AS ANTICANCER AGENTS” (A2A Pharmaceuticals, inc., priority 2019, published 2023).

Data set [1] deals with JIMT-1, MDA-MB-436, MDA-MB-157 and BT-474 T-DM1R cell lines. Put plainly: Cell viability (SRB) of breast cancer cell lines, three TACC3 inhibitors compared. It counts as cell-based, human. As to conditions: all cell lines tested, 72 hours. How it is done: (§1) JIMT-1, MDA-MB-436, MDA-MB-157 and BT-474 T-DM1R cell lines were tested with respect to their response to these three drugs. […] Although higher KHS101 doses was included, which were used by others (Campo & Breuer, 2018), an induction of these markers was only observed at very high doses.

The test system of data set [2] is JIMT-1 cells. Put plainly: Western blot of mitotic arrest, DNA damage and apoptosis markers. Format: cell-based, human. As to conditions: 24 hours, dose response. How it is done:
as §1

For data set [3], the system named is JIMT-1 cells. Briefly: Annexin V/PI staining. It counts as cell-based, human. The following applies: 500 nM, 72 h; vehicle 4.1%.
In another data set the test system is RT112 and RT4. Put plainly: Cell viability (SRB) of FGFR3-TACC3 fusion expressing cell lines. Format: cell-based, human. The following applies: both models RT112 and RT4, 3 days.
Another data set concerns MCF-12A. Briefly: Cell viability of normal breast epithelial cells. Format: cell-based, human. The following applies: 5, 10 μM. How it is done: Next, the specificity of compound 5 towards cancer cell lines over normal cells were tested. […] To test the transforming potential of TACC3 and dependency of cells to TACC3 to survive, we performed a clonogenic growth assay in MCF-12A cells after overexpressing TACC3. […] To exclude the possibility that the differences we observed between cancer and normal cells are due to the differences in the proliferation rates of these cells, we calculated their doubling times.

The subject of a further data set is EMT6. The following applies: 25 mg/kg every day orally. As to the method: Murine triple negative breast cancer (TNBC) cell line, EMT6, which is a fast-growing and highly aggressive model (Yang, Yang et al. 2017), was injected into MFPs of syngeneic Balb/c mice.
Six-to-eight-week-old female athymic nude or Balb/c mice were housed with a temperature-controlled and 12-hour light/12-hour dark cycle environment. This study was carried out in accordance with Institutional Animal Care and Use Committee of Bilkent University and performed according to the institution's guidelines and animal research principles. For in vivo breast cancer tumor growth in nude mice, 4×10^6 JIMT-1 cells were prepared in 150 μl of 1:1 DMEM and Matrigel (Corning, N.Y., USA), v/v) and injected into the mammary fat pads (MFP) of female nude mice. Mouse weight and tumor volume were measure daily using calipers. Tumor volumes were calculated as length×width^2×0.5. Once the tumor volume had reached about 90-100 mm^3, xenografts were randomized into groups. […] Mice were sacrificed 20-30 days after initiation of the treatments, and the tumors were collected and stored for subsequent analyses. […] 1×10^6 EMT-6 cells were prepared in PBS and injected into MFPs of mice. […] Survival was calculated using a predefined tumor volume cut-off of 1500 mm^3.

The next data set concerns HCT-116. The following applies: 25-50 mg/kg daily and orally. As to the method: Female nude mice and Balb/c mice were injected with human colon carcinoma cell line, HCT-116, and murine colon carcinoma cell line, CT26, respectively, into flank region of mice.
4×10^6 HCT-116 and 1×10^6 cells were prepared either in matrigel:PBS or in PBS, respectively, and injected subcutaneously into flank region of mice. […] Mice body weight was measured regularly.

In the next data set the test system is 4T1-Luc2. Put plainly: 4T1-Luc2 lung metastasis model. It counts as in vivo, mice. As to the method:
Next, to examine the effects of TACC3 inhibition on metastatic growth, an aggressive murine mammary tumor cells, 4T1-Luc2 (luciferase labelled), were injected intravenously to immunocompetent female mice. […] Metastatic outgrowth was monitored with in vivo imaging system (IVIS) by measuring bioluminescence.
Highly aggressive and metastatic 4T1-Luc2 (luciferase labelled) cells were prepared in PBS as 1×10^6 cells/mouse and injected intravenously to Balb/c female mice. Metastasis development was monitored using in vivo imaging system (IVIS) and bioluminescence was quantified regularly. […] Survival was calculated when mice died.

Data set [4] is described as follows: Log D, octanol/sodium phosphate buffer. Format: physicochemical. As to conditions: octanol/sodium phosphate buffer (50 mM, pH 7.4); read-out: log D7.4.
Data set [5] in a line: Stability in human liver microsomes. It counts as in vitro ADME.
The target of data set [6] is T1, TACC3 (Homo sapiens, UniProt Q9Y6A5). Put plainly: Isothermal titration calorimetry (ITC) of TACC3 into compound 5. It counts as binding. Details: purchased Origene TP310754. The following applies: 25° C. As to the method:
(§2) DARTS is a label free-strategy to identify potential direct protein targets for small molecules and is based on stabilization and protection from proteolysis of the target protein upon binding to small molecules (Lomenick, Jung et al. 2011, Pai, Lomenick et al. 2015).
Titrations were carried out using Microcal 200 equipment (GE Healthcare, Austria) at 25° C. For each titration, 10 injections were made with 6 min spacing. The reference power was set at 2 μcal/sec, and the sample cell was continuously stirred at 500 rpm. In order to assess the binding efficiency between drug and protein, background data obtained by protein injected into buffer alone was subtracted from the experimental isotherms. The data was analyzed using Origin 7 Software provided along with the ITC200, and binding parameters such as association constant (Ka), number of binding sites (N) and enthalpy (ΔH) were calculated.

Data set [7] concerns the target T1, TACC3. Briefly: Cellular thermal shift assay (CETSA) in intact JIMT-1 cells. On the set-up: endogenous in cells; host or cells: JIMT-1. The following applies: 1 μM, 6 h. Format: binding. The text has this: Protein thermal melting curves are also showing a thermal shift between vehicle and compound 5 treated band intensities. This interaction was also validated with isothermal titration calorimetry (ITC). […] DARTS is a label free-strategy to identify potential direct protein targets for small molecules and is based on stabilization and protection from proteolysis of the target protein upon binding to small molecules (Lomenick, Jung et al. 2011, Pai, Lomenick et al. 2015).
After treatment, cell pellets were resuspended in Tris-buffered saline (TBS) containing protease and phosphatase inhibitors. The cell suspension was divided into 6 PCR tubes and heated for 5 min to 45, 46, 47, 48, 49, 50° C. Subsequently, cells were lysed by three repeated freeze-thaw cycles with liquid nitrogen. Soluble proteins were collected with centrifugation at 20,000 g for 20 min at 4° C. and analyzed by sodium dodecyl sulfate polyacrylamide gel electrophoresis (SDS-PAGE) followed by western blot analysis.

For data set [8], the target named is T1, TACC3. Briefly: Drug affinity responsive target stability (DARTS) with JIMT-1 cell protein extracts. Format: binding. On the set-up: endogenous in cells; host or cells: JIMT-1. As to conditions: 10 μM.
Source text: as §2

Protocol for RT112 and RT4: KHS101 (Sigma Aldrich) and SPL-B (Axon MedChem, VA, USA) were dissolved in 100% DMSO to yield a stock concentration of 50 mM. Newly synthesized molecules were dissolved in 100% DMSO to yield a stock concentration of 10 mM. […] Cell viability was measured 72 hours after treatment with Sulforhodamine B (SRB, Sigma Aldrich) assay as recommended by the manufacturer.

Regarding `COc1ccc(-c2cc(Nc3ccnc(N4CCOCC4)n3)on2)cc1` [Compound 5], the “IC50 values compared with KHS101 and SPL-B” value in data set [1] is “significantly lower IC50 values”. Moreover, the “induction of mitotic arrest, DNA damage and apoptosis markers” value in the data set with JIMT-1 cells [2] is recorded as “dose-dependent manner”. Also, the “fraction of apoptotic cells (Annexin V/PI)” value in the data set with JIMT-1 cells [3] turned out to be 45.6%. Further, the “IC50 value compared to SPL-B and KHS101” value with RT112 and RT4 was “lowest IC50 value”. The “growth inhibition of cells at high doses” value in the data set on MCF-12A is recorded as “did not reach to 50% growth inhibition”. Moreover, in the data set with EMT6, the tolerability result was “well tolerated” and the tumor growth inhibition result is “significant tumor growth inhibition”. In addition, in the data set with EMT6 (compared to vehicle), the increased lifespan turned out to be 57.1%. The molecule also came in with a median survival with EMT6 (vehicle 14 days) of 22 days. In the data set with HCT-116, the tolerability result is “well tolerated” and the tumor growth result was “significantly impaired tumor growth”. Besides, in the data set on 4T1-Luc2 (50 mg/kg daily orally), the “metastatic growth compared to vehicle” value is reported as “impair metastatic growth” and the overall survival result is “significantly improved mice overall survival”. The median survival in the data set on 4T1-Luc2 (50 mg/kg every day orally, vehicle 19 days) was determined as 28 days. Further, the logD in data set [4] was 2.3. Also, the “stability in human liver microsomes” value in data set [5] is given as “low stability”. Also, on TACC3 [6], the Kd came to 1.5 nM, the “N (number of binding sites)” value is listed as 0.704, the ΔH came out at 49290 kcal/mol and the ΔS came to 1.65E5 cal/mol/deg. The “stabilization of cellular TACC3 upon temperature increase” value on TACC3 [7] was “considerably stabilized cellular TACC3”. Also, the “stabilization of TACC3 protein in the presence of pronase” value on TACC3 [8] was “TACC3 protein was stabilized”.
